The record followed here is patent US10426762B2, “Inhibitors of hepatitis C virus polymerase” (COCRYSTAL DISCOVERY, INC., priority 2012, dated 2019).

By IC50 is commonly meant the concentration that gives 50% inhibition. High values mean weaker potency in that assay, low ones greater potency in that assay. As a reminder, the EC50 is the midpoint of the concentration-response curve. A low value points to higher potency in that assay.

Assay [1] has as its target T1, HCV1b NS5B polymerase delta 21 (Hepatitis C virus genotype 1b, UniProt P26663).
T1 construct: purified HCV1b NS5B polymerase delta 21
Put plainly: RNA-dependent RNA HCV NS5B (polymerase) assay and IC50 determination. In kind it is biochemical. The protocol: Example 212—RNA-Dependent RNA HCV NS5B (Polymerase) Assay and IC50 Determination
In vitro RNA-dependent RNA polymerase activity was determined in a reaction mixture (50 μL) containing 50 mM Tris-HCl, pH 7.5, 5 mM MgCl2, 1 mM dithiothreitol, 0.5% Triton® X-100, 10 μM of UTP, 0.1-0.5 μCi of α-^32P UTP (Perkin Elmer Life Sciences), 1 μg of polyA:U16 (Midland Oligo), and 0.6 μg of purified HCV1b NS5B polymerase delta 21. Different concentrations of compounds were added to the reaction mixtures. The reaction was carried out at RT (23° C.) for 60 min and then stopped by the addition of 100 μL of 50 mM EDTA. The reaction mixtures were filtered through either a DE81 membrane or a positively charged nylon membrane, and the membranes were then extensively washed with 30 mM sodium citrate, pH 7.0 and 300 mM NaCl. The radiolabeled RNA products were quantitated using a Storm™ PhosphorImager™ (GE life Sciences). IC50 values were calculated using GraFit 6 and GraphPad Prism 5 from triplicate assays.

The next assay concerns HCV1b replicon. Put plainly: HCV replicon assay (Huh-7 cell line with HCV1b replicon containing luciferase reporter) and EC50 determination. In kind it is cell-based. The note with it: Hepatitis C virus, Huh-7 HCV1b replicon luciferase reporter, 72 hr, triplicate. On the procedure:
Example 213—HCV Replicon Assay and EC50 Determination
The antiviral activity of compounds against hepatitis C virus was determined by a hepatitis C virus replicon reporter cell line developed by Bartenschlager (Lohmann et al., Science 1999, 285:110-113; Bartenschlager et al., Antiviral Res 2003, 60:91-102). This cell-based assay utilized a liver cell carcinoma (Huh-7) cell line stably transformed with an HCV1b replicon containing a luciferase reporter gene. Varied concentrations of compounds were added to the reporter cell line, and further incubated at 37° C. for 72 hr in DMEM supplemented with 10% FCS. The inhibitory effects of experimental compounds or the reference compound, interferon alpha (INFα), on HCV replication were measured by luciferase activity using the Britelite™ plus luminescence reporter gene kit (Perkin Elmer, Shelton, Conn.). The Britelite plus reagent was added to the 96-well plates containing the HCV reporter cells, and luminescence was measured within 15 min using a Wallac 1450 Microbeta® Trilux liquid scintillation counter. EC50 values were calculated using GraFit 6 and GraphPad Prism 5 from triplicate HCV replicon assays.
(In general: In antiviral work, replicon cells carry a viral genome segment that copies itself.)

T1 sequence (P26663 2420-2989): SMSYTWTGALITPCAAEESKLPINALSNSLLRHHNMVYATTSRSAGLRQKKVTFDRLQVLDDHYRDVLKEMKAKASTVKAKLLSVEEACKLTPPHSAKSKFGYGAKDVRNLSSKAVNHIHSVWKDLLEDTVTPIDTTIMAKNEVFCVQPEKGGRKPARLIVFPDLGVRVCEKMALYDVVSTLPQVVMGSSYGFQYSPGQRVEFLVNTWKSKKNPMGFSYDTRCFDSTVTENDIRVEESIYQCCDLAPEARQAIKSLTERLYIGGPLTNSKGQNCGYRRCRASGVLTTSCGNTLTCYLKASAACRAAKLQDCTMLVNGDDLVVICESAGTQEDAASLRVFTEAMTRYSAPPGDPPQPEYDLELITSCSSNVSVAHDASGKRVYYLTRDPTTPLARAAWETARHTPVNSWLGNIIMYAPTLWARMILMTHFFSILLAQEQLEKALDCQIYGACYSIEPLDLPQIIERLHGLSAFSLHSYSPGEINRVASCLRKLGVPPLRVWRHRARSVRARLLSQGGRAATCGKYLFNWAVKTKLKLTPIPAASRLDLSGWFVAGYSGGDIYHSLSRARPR

In assay [1], `COc1cc(-c2cc(C3=C(C4CCC(C)CC4)CN(C)CC3)c(C(=O)O)s2)ccc1NC(=O)c1cscn1` (stereo not shown) [Example 179, 5-(3-methoxy-4-(thiazole-4-carboxamido)phenyl)-3-(1-methyl-5-(4-methylcyclohexyl)-1,2,3,6-tetrahydropyridin-4-yl)thiophene-2-carboxylic acid] displayed a concentration for half-maximal inhibition (IC50) of less than 3000 nM.
For the compound `Cc1nn(C)cc1CN1CCC(C2CCC(C)CC2)=C(c2cc(-c3ccc(NC(=O)c4cscn4)cc3)sc2C(=O)O)C1` (stereo not shown) [Example 195, 3-(1-((1,3-dimethyl-1H-pyrazol-4-yl)methyl)-4-(4-methylcyclohexyl)-1,2,5,6-tetrahydropyridin-3-yl)-5-(4-(thiazole-4-carboxamido)phenyl)thiophene-2-carboxylic acid], the EC50 with HCV1b replicon (Table 2) is less than 3000 nM.
In turn, `Cc1ccc(C2=C(c3cc(-c4ccc(NC(=O)c5cscn5)cc4)sc3C(=O)O)CCN(C)C2)cc1` [Example 202, 3-(1-methyl-5-(p-tolyl)-1,2,3,6-tetrahydropyridin-4-yl)-5-(4-(thiazole-4-carboxamido)phenyl)thiophene-2-carboxylic acid] had a 50% effective concentration (EC50) in the assay with HCV1b replicon (Table 1) of less than 3000 nM.
Still for that read-out and setting: as for `CC1CCC(C2=C(c3cc(-c4ccc(NC(=O)c5cscn5)nc4)sc3C(=O)O)CCN(C)C2)CC1` (stereo not shown) [Example 204, 3-(1-methyl-5-(4-methylcyclohexyl)-1,2,3,6-tetrahydropyridin-4-yl)-5-(6-(thiazole-4-carboxamido)pyridin-3-yl)thiophene-2-carboxylic acid], the figure is less than 3000 nM.
`CC1CCC(C2=C(c3cc(-c4ccc(NC(=O)c5cscn5)c(Cl)c4)sc3C(=O)O)CCN(C)C2)CC1` (stereo not shown) [Example 182, 5-(3-chloro-4-(thiazole-4-carboxamido)phenyl)-3-(1-methyl-5-(4-methylcyclohexyl)-1,2,3,6-tetrahydropyridin-4-yl)thiophene-2-carboxylic acid]: in assay [1], the IC50 was less than 3000 nM.
Same read-out and setting: under `CC1CCC(C2=C(c3cc(-c4ccc(NC(=O)c5cscn5)cc4)sc3C(=O)O)CCN(Cc3cnn(C)c3)C2)CC1` (stereo not shown) [Example 186, 3-(1-((1-methyl-1H-pyrazol-4-yl)methyl)-5-(4-methylcyclohexyl)-1,2,3,6-tetrahydropyridin-4-yl)-5-(4-(thiazole-4-carboxamido)phenyl)thiophene-2-carboxylic acid] stands less than 3000 nM.
`CC1CCC(C2=C(c3cc(-c4ccc(-c5cc6ncccn6n5)cc4)sc3C(=O)O)CN(Cc3cnn(C)c3)CC2)CC1` (stereo not shown) [Example 194, 3-(1-((1-methyl-1H-pyrazol-4-yl)methyl)-4-(4-methylcyclohexyl)-1,2,5,6-tetrahydropyridin-3-yl)-5-(4-(pyrazolo[1,5-a]pyrimidin-2-yl)phenyl)thiophene-2-carboxylic acid]: the EC50 in the assay on HCV1b replicon (Table 2) was less than 3000 nM.
In turn, `Cc1cc(-c2cc(C3=C(C4CCC(C)CC4)CCN(C)C3)c(C(=O)O)s2)ccc1NC(=O)c1cscn1` (stereo not shown) [Example 196, 3-(1-methyl-4-(4-methylcyclohexyl)-1,2,5,6-tetrahydropyridin-3-yl)-5-(3-methyl-4-(thiazole-4-carboxamido)phenyl)thiophene-2-carboxylic acid] displayed an EC50 in the assay on HCV1b replicon (Table 1) of less than 3000 nM.
The same measure, in the same setting: under `Cc1cc(-c2cc(C3=C(C4CCC(C)CC4)CN(C)CC3)c(C(=O)O)s2)ccc1NC(=O)c1cscn1` (stereo not shown) [Example 178, 5-(3-methyl-4-(thiazole-4-carboxamido)phenyl)-3-(1-methyl-5-(4-methylcyclohexyl)-1,2,3,6-tetrahydropyridin-4-yl)thiophene-2-carboxylic acid] stands less than 3000 nM; under `CC1CCC(C2=C(c3cc(-c4ccc(-c5cc6n(C)c(=O)ccn6n5)cc4)sc3C(=O)O)CCN(C)C2)CC1` (stereo not shown) [Example 185, 3-(1-methyl-5-(4-methylcyclohexyl)-1,2,3,6-tetrahydropyridin-4-yl)-5-(4-(4-methyl-5-oxo-4,5-dihydropyrazolo[1,5-a]pyrimidin-2-yl)phenyl)thiophene-2-carboxylic acid], less than 3000 nM.
For the compound `CN1CCC(C2CCCCC2)=C(c2cc(-c3ccc(NC(=O)c4cscn4)cc3)sc2C(=O)O)C1` [Example 210, 3-(4-Cyclohexyl-1-methyl-1,2,5,6-tetrahydro-pyridin-3-yl)-5-{4-[(thiazole-4-carbonyl)-amino]-phenyl}-thiophene-2-carboxylic acid], the 50% inhibitory concentration (IC50) in assay [1] was less than 3000 nM.
In turn, `CC1CCC(C2=C(c3cc(-c4ccc(NC(=O)c5cscn5)c(C(F)(F)F)c4)sc3C(=O)O)CCN(C)C2)CC1` (stereo not shown) [Example 183, 3-(1-methyl-5-(4-methylcyclohexyl)-1,2,3,6-tetrahydropyridin-4-yl)-5-(4-(thiazole-4-carboxamido)-3-(trifluoromethyl)phenyl)thiophene-2-carboxylic acid] showed an EC50 in the assay with HCV1b replicon (Table 1) of less than 3000 nM.
In assay [1], `CC1CCC(C2=C(c3cc(-c4ccc(N)nc4)sc3C(=O)O)CCN(C)C2)CC1` (stereo not shown) [Example 203, 5-(6-aminopyridin-3-yl)-3-(1-methyl-5-(4-methylcyclohexyl)-1,2,3,6-tetrahydropyridin-4-yl)thiophene-2-carboxylic acid] gave an IC50 of less than 3000 nM.
In the assay on HCV1b replicon (Table 2), `CC1CCC(C2=C(c3cc(-c4ccc(NC(=O)c5cscn5)cc4)sc3C(=O)O)CN(Cc3cnn(C)c3)CC2)CC1` (stereo not shown) [Example 193, 3-(1-((1-methyl-1H-pyrazol-4-yl)methyl)-4-(4-methylcyclohexyl)-1,2,5,6-tetrahydropyridin-3-yl)-5-(4-(thiazole-4-carboxamido)phenyl)thiophene-2-carboxylic acid] came in with an EC50 of less than 3000 nM.
As to `Cc1cc(-c2cc(C3=C(C4CCC(C)CC4)CN(C)CC3)c(C(=O)O)s2)ccc1-c1cc2ncccn2n1` (stereo not shown) [Example 187, 5-(3-methyl-4-(pyrazolo[1,5-a]pyrimidin-2-yl)phenyl)-3-(1-methyl-5-(4-methylcyclohexyl)-1,2,3,6-tetrahydropyridin-4-yl)thiophene-2-carboxylic acid], the IC50 in assay [1] was less than 3000 nM.
Take `CC1CCC(C2=C(c3cc(-c4ccc(NC(=O)c5cscn5)c(C#N)c4)sc3C(=O)O)CCN(C)C2)CC1` (stereo not shown) [Example 180, 5-(3-cyano-4-(thiazole-4-carboxamido)phenyl)-3-(1-methyl-5-(4-methylcyclohexyl)-1,2,3,6-tetrahydropyridin-4-yl)thiophene-2-carboxylic acid]: the EC50 with HCV1b replicon (Table 1) was less than 3000 nM.
Consider `CC1CCC(C2=C(c3cc(-c4ccc(NC(=O)c5cscn5)cc4)sc3C(=O)O)CN(CCO)CC2)CC1` (stereo not shown) [Example 188, 3-(1-(2-hydroxyethyl)-4-(4-methylcyclohexyl)-1,2,5,6-tetrahydropyridin-3-yl)-5-(4-(thiazole-4-carboxamido)phenyl)thiophene-2-carboxylic acid], for which the 50% effective concentration (EC50) in the assay with HCV1b replicon (Table 2) was less than 3000 nM.
On the same count and under the same terms, as for `CC1CCC(C2=C(c3cc(-c4ccc(-c5cc6ncccn6n5)cc4)sc3C(=O)O)CN(CCO)CC2)CC1` (stereo not shown) [Example 191, 3-(1-(2-hydroxyethyl)-4-(4-methylcyclohexyl)-1,2,5,6-tetrahydropyridin-3-yl)-5-(4-(pyrazolo[1,5-a]pyrimidin-2-yl)phenyl)thiophene-2-carboxylic acid], the figure is less than 3000 nM; as for `CC1CCC(C2=C(c3cc(-c4ccc(-c5cc6ncccn6n5)cc4)sc3C(=O)O)CN(CC(O)CO)CC2)CC1` (stereo not shown) [Example 192, 3-(1-(2,3-dihydroxypropyl)-4-(4-methylcyclohexyl)-1,2,5,6-tetrahydropyridin-3-yl)-5-(4-(pyrazolo[1,5-a]pyrimidin-2-yl)phenyl)thiophene-2-carboxylic acid], less than 3000 nM.
In turn, `CN1CCC(c2cc(-c3ccc(NC(=O)c4cscn4)cc3)sc2C(=O)O)=C(c2ccc(Cl)cc2Cl)C1` [Example 201, 3-(5-(2,4-dichlorophenyl)-1-methyl-1,2,3,6-tetrahydropyridin-4-yl)-5-(4-(thiazole-4-carboxamido)phenyl)thiophene-2-carboxylic acid] yielded an EC50 in the assay on HCV1b replicon (Table 1) of less than 3000 nM.
On the same count and under the same terms, under `Cc1cc(-c2cc(C3=C(C4CCC(C)CC4)CCN(CCO)C3)c(C(=O)O)s2)ccc1NC(=O)c1cscn1` (stereo not shown) [Example 197, 3-(1-(2-hydroxyethyl)-4-(4-methylcyclohexyl)-1,2,5,6-tetrahydropyridin-3-yl)-5-(3-methyl-4-(thiazole-4-carboxamido)phenyl)thiophene-2-carboxylic acid] stands less than 3000 nM.
Regarding `CN1CCC(c2cc(-c3ccc(NC(=O)c4cscn4)cc3)sc2C(=O)O)=C(C2CCCCC2)C1` [Example 205, 3-(5-Cyclohexyl-1-methyl-1,2,3,6-tetrahydro-pyridin-4-yl)-5-{4-[(thiazole-4-carbonyl)-amino]-phenyl}-thiophene-2-carboxylic acid], the concentration for a half-maximal effect (EC50) with HCV1b replicon (Table 2) is less than 3000 nM.
